In patent publication US20180228703A1, “Improved Hyaluronan and Modified-Hyaluronan in Biomedical Applications” (CHL Industries, LLC, priority 2015, published 2018):

Columns and labels:
[1] = Viscosity of HA solution on storage at 25, 40 and 50° C. (cone-plate viscometer); assay type: physicochemical
Protocol: Viscosity measurements are made of vials of sterile, injectable grade, high molecular weight 1% sodium hyaluronate solution (Hycoat® Sterile Wound Management Solution; Hyaluronate Sodium, Solution 20 mg/2 mL; avg. molecular weight 1.0-1.3 million Daltons; supplied by Hymed Group, Bethlehem, Pa.) containing Chlorophyllin Copper Complex Sodium at varying concentrations as summarized in the table below. Preferably, dissolved and atmospheric oxygen is purged from the HA solution by displacing the headspace in the vial with Nitrogen or Argon.
Sodium copper chlorophyllin complex (disodium copper isochlorin e4 minimum content of 25% based on dry weight of complex; supplied by Frontier Scientific, Logan, Utah) is added to the 1% HA test solutions (i.e., 2 mL Hycoat® described above) as follows: 1 gram of CHLcu is added to 99 grams of distilled water, heated to 50° C., mixed for 30 minutes with a magnetic stirrer, and then cooled to room temperature. The specified concentration of CHLCu solution is drawn into a syringe through a 0.45u syringe filter and added to the sterile vial of 1% HA solution under a laminar flow hood. For example, in order to prepare a 1% HA solution containing 100 ppm of CHLcu in the final HA solution 20.5 microliters (0.0205 mL) of the 1% CHLCu solution is injected into the vial of 2 mL of sterile HA solution.
Each of the 2 mL test samples (with and without CHLcu) are stored at 25° C., 40° C., and 50° C. for up to eight weeks. Viscosity measurements are taken at baseline and at 1, 2, 4, 6 and 8 weeks after storage at the three temperatures.
0.5 mL of the test sample is then withdrawn from each vial, causing a temporary shear in the sample viscosity.
All samples (1% HA+CHLCu) are equilibrated prior to viscosity measurement. […]
Each withdrawn sample is allowed to further equilibrate for five additional minutes before taking viscosity measurements. Viscosity is preferably measured at 2 rpm with a cone-plate viscometer (e.g., Brookfield LVD-II Pro Cone/Plate viscometer; CPE-51 spindle from Brookfield Engineering Laboratories, Inc. Middleboro, Mass.).

[2] = test system: Vitrase injectable sterile hyaluronidase; assay: Anti-hyaluronidase activity: viscosity of 1% HA before and after addition of Vitrase; assay type: biochemical, Ovine
Protocol: In order to assess the anti-hyaluronidase activity of the CHLcu stabilizing agent, 40 units (0.2 mL) of Vitrase® injectable sterile hyaluronidase solution (Ovine, 200 USP Units/mL) is added to each of four 1% HA samples that have been stored at 25° C. for six weeks with (a) no CHLCu; (b) 50 ppm CHLCu; (c) 100 ppm CHLCu; and (d) 250 ppm CHLCu). Anti-hyaluronidase activity is measured by comparing the viscosity of the test samples before and after addition of Vitrase®.
A product containing 1% HA (Hycoat® Sterile Wound Management Solution; Hyaluronate Sodium, Solution 20 mg/2 mL; average molecular weight 1.0-1.3 million Daltons) and 100 mcg/mL CHLCu was combined with 40 units (0.2 mL) of Vitrase® injectable sterile hyaluronidase solution (Ovine, 200 USP Units/mL) and stored at 25° C. for 30 minutes. The viscosity of the combined solution of sodium HA, CHLCu, and Vitrase® composition was seen to drop from 450.6 cps to 161.8 cps, or 35.9% of initial viscosity.
By way of comparison, the viscosity of the same 1% HA solution without CHLCu was measured, and then exposed to 40 units of the same Vitrase. After 30 minutes of Vitrase® contact, the 1% HA solution underwent a viscosity change from 516.2 cps to 43.69 cps or only 8.5% of the initial HA viscosity.

HDF = assay: Long term HDF viability, MTT assay; assay type: cell-based, human; conditions: long-term incubation, 1 μg/mL
Protocol: The effect of long-term incubation of HDF with E4 is assessed by MTT, a colorimetric assay for assessing cell metabolic activity.

[3] = test system: non-soluble type I collagen; assay: Non-soluble type I collagen production by HDF, direct ELISA; assay type: cell-based, human; conditions: for % CTRL (COL-I): 4 days, vs water; for % CTRL (Cell # Standardized): non-soluble collagen I standardized to cell numbers; for Cell # Standardized: repeat testing, type I collagen deposition, H2O = 100
Protocol: Adult human dermal fibroblasts (Cell Applications, San Diego, Calif.) were plated in DMEM without phenyl red supplemented with 5% FBS and 1% penicillin/streptomycin (PS) at a concentration of 8,000 cells/well. Test materials, which were stored at 4° C. until dissolved at 20 mg/ml in ddH2O, were added the next day on attached exponentially-growing cells.
Cells were then fixed with 2.5% trichloroacetic acid (TCA) at 4° C., dried overnight, and tested for non-soluble type I collagen, using direct ELISA.
(§1) Cells proliferation was quantified by staining cytoskeletons with sulforhodamine B according to the colorimetric method of Voigt, “Sulforhodamine B assay and chemosensitivity,” Methods Mol. Med. Vol. 110, pp. 39-48 (2005). Statistical significance was assessed with two-tailed paired Student test. Deviations of >15% as compared to the negative water control with p values below 0.05 were considered statistically significant.

[4] = test system: adult human dermal fibroblasts; assay: Cell proliferation, sulforhodamine B staining; assay type: cell-based; conditions: 4 days, vs water
Protocol: Adult human dermal fibroblasts (Cell Applications, San Diego, Calif.) were plated in DMEM without phenyl red supplemented with 5% FBS and 1% penicillin/streptomycin (PS) at a concentration of 8,000 cells/well. Test materials, which were stored at 4° C. until dissolved at 20 mg/ml in ddH2O, were added the next day on attached exponentially-growing cells. Negative and positive controls were, respectively, type I sterile water and L-Ascorbic acid 2-phosphate sesquimagnesium salt (“MAP”) (Sigma-Aldrich).
as §1

COL5A1 = assay: Collagen gene expression in adult human dermal fibroblasts, PCR array; assay type: cell-based; conditions: HDF, 24 hours
Protocol: (§2) Using adult human dermal fibroblasts (Cell Applications, San Diego, Calif.) (“HDF”), the effectiveness of three chlorophyllin materials—Isochlorin E4 Disodium (“E4”); Sodium Copper Chlorophyllin C3999 (“C3999”); and Chlorophyllin Sodium Copper Salt (“CSCS”)—are assessed for the ability to positively effect the differential expression of at least one of the following three collagen genes—COL15A1; COL1A1; and COL5A1. After cell viability tests, the effect of 2 μg/ml E4, 10 μg/ml CSCS, and 10 μg/ml C3999 on adult human dermal fibroblasts (100,000 cells/well) on gene expression were evaluated using PCR arrays.
(§3) HDF cells were incubated for 24 hours in a 12-well plate at a concentration of 100,000 cells/well in Dulbecco's Modified Eagle Medium (DMEM) with 5% Fetal Bovine Serum (FBS). The three test materials were added to the wells, incubated for 24 hours. […] RNA was extracted and purified with NucleoSpin RNA II kit from Machery-Nagel (Bethlehem, Pa.). Purified total RNA was analyzed at 230 nm, 260 nm and 280 nm with Agilent HP-8452A diode array spectrophotometer. The concentration of RNA was equalized across the samples and the expression of genes of interest was measured by real-time quantitative PCR with BioRad iCycler iQ Detection System using Human Extracellular Matrix & Adhesion Molecules PCR array PAHS-13ZA from Qiagen (formerly SA Biosciences, Frederick, Md.). Reactions were performed with 1st strand synthesis kit, SYBR Green master mix and PCR setup parameters from Qiagen. Results were normalized to housekeeping genes with the RT2 Profiler PCR Array Data Analysis version 3.5 software
(§4) Genes were considered differentially expressed if the level of expression was detected in less than 30 cycles, and modulation was 1.5 fold or higher.

COL15A1 = assay: as above; assay type: cell-based; conditions: HDF, 24 hours
Protocol: as §2, §3, §4

COL1A1 = assay: as above; assay type: cell-based; conditions: HDF, 24 hours
Protocol: as §2, §3, §4

[5] = 1% HA (Hycoat) + 100 mcg/mL CHLCu, 40 units Vitrase, 25° C., 30 minutes

Substance | % CTRL (COL-I) ([3]; 5 μg/mL) [% CTRL] | % CTRL (COL-I) ([3]; 10 μg/mL) [% CTRL] | % CTRL (Cell # Standardized) ([3]; 5 μg/mL) [% CTRL] | % CTRL (Cell # Standardized) ([3]; 10 μg/mL) [% CTRL] | Cell # Standardized ([3]; 0.25 ug/ml) | Cell # Standardized ([3]; 1 μg/ml) | Cell # Standardized ([3]; 2 μg/ml) | Cell # Standardized ([3]; 5 μg/ml) | % CTRL (Cell #) ([4]; 5 μg/mL) [% CTRL] | % CTRL (Cell #) ([4]; 10 μg/mL) [% CTRL] | % CTRL (COL-I) ([3]; 20 μg/mL) [% CTRL] | % CTRL (Cell # Standardized) ([3]; 20 μg/mL) [% CTRL] | % CTRL (Cell #) ([4]; 20 μg/mL) [% CTRL] | COL5A1 expression (modulation) (COL5A1; 10 μg/ml) [fold] | COL15A1 expression (modulation) (COL15A1; 10 μg/ml) [fold] | COL1A1 expression (modulation) (COL1A1; 10 μg/ml) [fold] | other results
Chlorophyllin Copper Complex Sodium [CHLcu] | – | – | – | – | – | – | – | – | – | – | – | – | – | – | – | – | viscosity change compared with samples not containing CHLCu ([1]; 1% HA, 25, 40, 50° C., up to eight weeks): less of a viscosity change; viscosity deviation from baseline after 8 weeks of storage ([1]; HA product stored with CHLcu about 50 to about 250 ppm, 40° C.): ≤ 5%; viscosity increase ([1]; HA product stored with CHLcu about 50 to about 250 ppm, 40° C., about 8 weeks): up to 25%; viscosity before Vitrase ([2]; 1% HA (Hycoat) + 100 mcg/mL CHLCu): 450.6 cps; % of initial viscosity after Vitrase [2, 5]: 35.9%; viscosity after Vitrase [2, 5]: 161.8 cps; loss of viscosity when challenged with hyaluronidase ([2]; product containing HA (or modified HA) and CHLCu): reduced loss of viscosity
Isochlorin E4 Disodium | 94 | 90 | 115 | 111 | 88 | 89 | 113 | 101 | 81 | 80 | – | – | – | – | – | – | HDF cell metabolic activity (MTT) (HDF): unaffected; % CTRL (COL-I) ([3]; 2 μg/mL): 120 % CTRL; % CTRL (Cell # Standardized) ([3]; 2 μg/mL): 133 % CTRL; % CTRL (Cell #) ([4]; 2 μg/mL): 89 % CTRL; COL5A1 expression (modulation) (COL5A1; 2 μg/ml): 1.5 fold; COL15A1 expression (modulation) (COL15A1; 2 μg/ml): 1.2 fold; COL1A1 expression (modulation) (COL1A1; 2 μg/ml): 1.2 fold
Chlorophyllin Sodium Copper Salt [CSCS] | 95 | 85 | 99 | 96 | 97 | 96 | 114 | 110 | 95 | 87 | 84 | 94 | 88 | 1.7 | 1.2 | 1.5 | –
Sodium Copper Chlorophyllin C3999 | 97 | 110 | 101 | 118 | – | – | – | – | 95 | 92 | 121 | 145 | 83 | 1.3 | 1.5 | 1.2 | –
L-Ascorbic acid 2-phosphate sesquimagnesium salt [MAP, reference compound] | – | – | – | – | – | – | – | – | – | – | – | – | – | – | – | – | % CTRL (Cell #) ([4]; 50 μg/mL): 111 % CTRL; % CTRL (Cell #) ([4]; 100 μg/mL): 100 % CTRL
